Measurements as given in patent US20030148498A1, “Microorganism overproducing 5'-xanthylic acid” (priority 2001, published 2003).

Legend:
Parent strain KFCC 10743 = assay: Growth of parent strain in minimum medium with 3,4-dehydroproline; type: cell-based, Corynebacterium ammoniagenes; set-up: key to growth: +: growth; −: no growth; settings: 5 days; for growth: 30° C.
Experimental: (§1) To be more specific, in this innovative research, we adopted Corynebacterium ammoniagenes KFCC 10743 as parent strain and treated it with UV radiation and mutation derivatives such as N-methyl-N′-nitro-N-nitrosoguanidine (NTG) according to ordinary procedure and, by adding 0 to 50 mg/L of proline analogue 3,4-dehydroproline (Sigma Company) in the minimum medium shown in the following Table 1, we developed growing mutant strains. From them, a strain which grows in 30 mg/L 3,4-dehydroproline was separated, named CJXPK001. And, it was deposited under the Budapest Treaty to the Korea Culture Center of Microorganisms on Dec. 7, 2001 with accession Number KCCM 10340.
(§2) Further, after adding 0 to 50 mg/L of 3,4-dehydroproline in the minimum medium shown in the above Table 1 according to concentration levels, the medium was fermented at 30° C. for 5 days. And the whole process was scrutinized to find the growth rates of the mutant strain CJXPK001 and the parent strain KFCC 10743.

Mutant strain CJXPK001 = assay: Growth of mutant strain in minimum medium with 3,4-dehydroproline; type: cell-based, Corynebacterium ammoniagenes; set-up: key: +: growth; −: no growth; settings: 30° C., 5 days
Experimental: as §1, §2

[1] = parent strain KFCC 10743, 30° C.

Structure (SMILES): O=C(O)C1C=CCN1 (centres unmarked) [3,4-dehydroproline]
- growth (Parent strain KFCC 10743; 3,4-dehydroproline 5 mg/L): +
- growth (Parent strain KFCC 10743; 3,4-dehydroproline 10 mg/L): −
- growth (Parent strain KFCC 10743; 3,4-dehydroproline 20 mg/L): −
- growth (Parent strain KFCC 10743; 3,4-dehydroproline 30 mg/L): −
- growth (Parent strain KFCC 10743; 3,4-dehydroproline 40 mg/L): −
- growth (Parent strain KFCC 10743; 3,4-dehydroproline 50 mg/L): −
- 3,4-dehydroproline concentration at which the strain showed resistance (Parent strain KFCC 10743; [1]): 5 mg/L
- 3,4-dehydroproline concentration level at which no growth was observed (Parent strain KFCC 10743; [1]): above 10 mg/L
- growth (Mutant strain CJXPK001; 3,4-dehydroproline 30 mg/L): +
- growth (Mutant strain CJXPK001; 3,4-dehydroproline 40 mg/L): −
- growth (Mutant strain CJXPK001; 3,4-dehydroproline 50 mg/L): −
